Values joined by “and” are separate entries in the source; they are usually repeats but may differ in a detail not shown here. Identical values can stand only once.
Biological target: T1, Parkin ligase (Homo sapiens, UniProt O60260)
T1 sequence (O60260 1-465): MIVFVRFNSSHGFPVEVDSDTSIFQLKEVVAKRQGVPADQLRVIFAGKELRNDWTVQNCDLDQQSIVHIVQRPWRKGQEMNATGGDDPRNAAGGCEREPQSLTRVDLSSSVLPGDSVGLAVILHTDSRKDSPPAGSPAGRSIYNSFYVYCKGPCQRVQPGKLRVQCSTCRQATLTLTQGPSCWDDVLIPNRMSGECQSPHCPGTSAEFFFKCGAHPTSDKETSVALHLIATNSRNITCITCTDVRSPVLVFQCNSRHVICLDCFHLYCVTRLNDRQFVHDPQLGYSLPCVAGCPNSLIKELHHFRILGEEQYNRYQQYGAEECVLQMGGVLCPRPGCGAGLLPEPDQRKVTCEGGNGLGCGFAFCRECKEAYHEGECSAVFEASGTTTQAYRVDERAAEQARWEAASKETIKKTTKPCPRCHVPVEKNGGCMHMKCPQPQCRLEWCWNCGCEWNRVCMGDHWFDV
Assay: Activity-Based Probe Assay using Ubiquitin vinyl sulfone probe (TR-FRET)
Type: biochemical
Conditions: heat activated Parkin, HA-Ub-VS probe, activation EC50; read-out: Probe Assay EC50 (μM) [Example 2]
Procedure: An Ubiquitin vinyl sulfone probe can be used that irreversibly binds to the active site cysteine of Parkin ligase. Covalent attachment of the probe to the Parkin can be monitored by TR-FRET. Candidate activator compounds can be identified by increasing the activity of Parkin ligase due to an increase in TR-FRET signal. Screening for activating compounds can be distinguished from the controls as follows: 100% activation signal=Heat activated Parkin+100 nM control activator in DMSO. 0% activation signal=Heat activated Parkin+DMSO only. Parkin activators can be identified by an increase of the 0% activation signal TR-FRET signal. Assay Conditions: Materials: • Assay Plate: White 384 well plate (Corning 3572) • Enzyme: Parkin-His tagged 203 μM (10.5 mg/ml) • Probe: Ubiquitin vinyl-sulfone (HA-Ub-VS Boston Biochem U-212) • DMSO: DMSO (Sigma cat #D4540-100ML) • Reaction Buffer: 50 mM HEPES (pH 8.5), 150 mM NaCl, 0.01% Tween 20, 0.1% BSA • Detection Buffer: 50 mM HEPES (pH 8.5), 150 mM NaCl, 0.01% Tween 20, 0.1% BSA, 800 mM KF • Detection Reagent A: 2.6 nM Anti-6HIS-Eu cryptate and 40 nM Anti-HA-XL665 in detection buffer • Eu cryptate: Anti-6HIS-Eu cryptate (CisBio 61HISKLA) • XL665: Anti-HA-XL665 (CisBio 610HAXLA) Enzyme Reaction (15 Min Pre Incubation Parkin with Activator Only) • Parkin: 40 nM • HA-Ub-VS Probe: 70 nM • Activator/DMSO: 2× Activator/2% DMSO Reaction time: 60 minutes Temperature: 22° C. Total volume: 10 μl reaction Detection Reaction Take […] of Enzyme Reaction above and add 10 μl detection Reagent A under the following conditions: • Reaction time: 60 minutes • Temperature: 22° C. • Total volume: 20 μl
Assay procedure (Using HP D-300 compound dispenser and Bravo for the operation):
1) Heat activate Parkin in reaction buffer (500 μl/1.5 ml tube: Eppendorf Thermomixer 5 minutes, 400 rpm at 58° C. and put on ice until needed).
2) Load assay plate wells with 4.8 μl 84.5 nM Parkin in reaction buffer by use of Bravo.
3) Deliver 0.2 μl 200× activator candidates in DMSO by use of HP D-300 compound dispenser. Highest 200× concentration=[…] and then twofold dilutions.
4) Spin 1000 rpm, 2 minutes, at room temp.
5) Incubate plate for 15 minutes at room temp.
6) Add 5 μl 140 nM HA-Ub-VS Probe in reaction buffer by use of Bravo.
7) Spin 1000 rpm, 2 minutes, at room temp.
8) Incubate plate for 60 minutes at room temp.
9) Add 10 μl 2.6 nM Anti-6HIS-Eu cryptate and 40 nM […] in detection buffer.
10) Spin 1000 rpm, 2 minutes, at room temp.
11) Incubate plate for 60 minutes at room temp.
12) Read plates on Perkin Elmer Envision instrument with the following parameters:
LANCE dual laser protocol loaded into the Envision® software
Top Mirror: LANCE/DELFIA Duel/Bias (Bar code 446)
Emission Filter: APC 665 EM (Bar code 205)
2nd Emission Filter: Europium 615 EM (Bar code 203)
Read 655 nm (channel 1) and 615 nm (channel 2) wavelengths on Envision®
Data Analysis: The Data can be read in CSV files. There are two tables in those CSV files, which are the values of 655 nm (channel 1) and 615 nm (channel 2) wavelengths respectively. The data is converted to an HTRF Ratio=(Channel 1/Channel 2)*10,000
The average of all the 0 μM controls (DMSO only)=BKGD (Background—0% activation). Subtract BKGD from each HTRF Ratio value=HTRF−BKGD. The average of all the […] 100 nM control activator in DMSO controls=Max (100% activation). The following equation is then used to calculate % Activation for each well/candidate as follows: % Activation=(HTRF−BKGD/Max)*100.
Graphpad Prism was used with Transform X values: X=Log(X) and nonlinear regression (dose-response-stimulation): Log(agonist) vs Response−variable slope (four parameters) with constrains set to Bottom=0 and Top=100.
The Activity-Based Probe Assay was performed with various compounds in Tables 1, 2, 3A and 3B.

EC50	Structure (SMILES)
52 µM and > 100 µM	Cc1ccccc1C(=O)Nc1nc(NC(=O)c2ccccc2C)n(-c2ccc3c(c2)CCO3)n1 [Compound 1]
38 µM and 24 µM	Cc1ccccc1C(=O)Nc1nc(NC(=O)[C@@H]2C[C@@H](F)CN2)nn1-c1ccccc1 [Compound 4]
> 100 µM	Cc1ccccc1C(=O)Nc1nc(NC(=O)C2CCCNC2)n(-c2ccccc2)n1 (stereo not drawn) [Compound 14]
> 100 µM	Cc1ccccc1C(=O)Nc1nc(NC(=O)C2CCCN2)n(-c2ccccc2)n1 (stereo not drawn) [Compound 15]
> 100 µM	Cc1ccccc1C(=O)Nc1nc(NC(=O)C2CCCNC2)nn1-c1ccccc1 (stereo not drawn) [Compound 19]
> 100 µM	Cc1ccccc1C(=O)Nc1nc(NC(=O)c2cn(C)cn2)n(-c2ccccc2)n1 [Compound 22]
> 100 µM	Cc1ccccc1C(=O)Nc1nc(NC(=O)C2CNC2)nn1-c1ccccc1 [Compound 43]
> 100 µM	Cc1ccccc1C(=O)Nc1nc(NC(=O)C2CCN(CCC#N)CC2)nn1-c1ccccc1 [Compound 45]
16 µM	Cc1ccccc1C(=O)Nc1nc(NC(=O)c2ccccc2C)n(-c2cnn(C)c2)n1 [Compound 47]
2 µM	C#Cc1ccc(C(=O)Nc2nc(NC(=O)c3cccc(N=[N+]=[N-])c3)nn2-c2ccccc2)cc1 [Compound 48]
> 100 µM	O=C(Nc1nc(NC(=O)C2CCCCN2)n(-c2ccccc2)n1)C1CCCCN1 (stereo not drawn) [Compound 49]
> 100 µM	Cc1ccccc1C(=O)Nc1nc(-c2ccc(F)cn2)nn1-c1ccccc1 [Compound 50]
84 µM	Cc1ccccc1C(=O)Nc1nc(NC(=O)C2CCCCN2)nn1-c1ccccc1 (stereo not drawn) [Compound 51]
61 µM	O=C(Nc1nc(Nc2cccc3ccccc23)n(-c2ccccc2)n1)c1ccccc1 [Compound 52]
> 100 µM	C#Cc1ccc(C(=O)Nc2nc(NC(=O)c3ccc(N=[N+]=[N-])cc3)nn2-c2ccccc2)cc1 [Compound 53]
10 µM	Cc1ccccc1C(=O)Nc1nc(NC(=O)c2ccccc2C)n(-c2ccc(N3CCOCC3)cc2)n1 [Compound 54]
12 µM	O=C(Nc1nc(NC(=O)c2c(F)c(F)c(F)c(F)c2F)n(-c2ccccc2)n1)c1ccccc1 [Compound 55]
> 100 µM	O=C(Nc1nc(NC(=O)C2CCCNC2)n(-c2ccccc2)n1)C1CCCNC1 (stereo not drawn) [Compound 56]
> 100 µM	Cc1ccccc1C(=O)Nc1nc(NC(=O)c2ccccc2C)n(-c2ccc(N3CCNCC3)cc2)n1 [Compound 57]
8 µM	Cc1ccccc1C(=O)Nc1nc(NC(=O)c2cccc(N=[N+]=[N-])c2)nn1-c1ccccc1 [Compound 66]
24 µM	Cc1ccccc1C(=O)Nc1nc(NC(=O)c2ccccc2C)n(-c2ccc(N3CCN(C)CC3)cc2)n1 [Compound 68]
4 µM	Cc1ccccc1C(=O)Nc1nc(NC(=O)c2cccc(N=[N+]=[N-])c2)n(-c2ccccc2)n1 [Compound 69]
4 µM	Cc1ccccc1C(=O)Nc1nc(NC(=O)c2ccc(N=[N+]=[N-])cc2)n(-c2ccccc2)n1 [Compound 70]
2 µM	O=C(Nc1nc(NC(=O)c2cccnc2)n(-c2cccc(F)c2)n1)c1cccnc1 [Compound 72]
0.9 µM	Cc1ccccc1C(=O)Nc1nc(NC(=O)c2ccc(N=[N+]=N)cc2)n(-c2ccc(OC(F)(F)F)cc2)n1 [Compound 74]
34 µM	Cc1ccccc1C(=O)Nc1nc(NC(=O)c2ccc(N=[N+]=[N-])cc2)nn1-c1ccc(OC(F)(F)F)cc1 [Compound 76]

EC50	Structure (SMILES)
6 µM	Cc1ccccc1C(=O)Nc1nc(NC(=O)c2cccc(N=[N+]=[N-])c2)nn1-c1ccc(OC(F)(F)F)cc1 [Compound 77]
0.2 µM and 0.4 µM and 0.5 µM	O=C(Nc1nc(NC(=O)c2c(F)c(F)c(F)c(F)c2F)nn1-c1ccccc1)c1ccccc1 [Compound 78]
1 µM	Cc1ccccc1C(=O)Nc1nc(NC(=O)c2cccc(N=[N+]=[N-])c2)n(-c2ccc(OC(F)(F)F)cc2)n1 [Compound 79]
3 µM	Cc1ccccc1C(=O)Nc1nc(NC(=O)c2ccncc2)nn1-c1ccc(OC(F)(F)F)cc1 [Compound 80]
3 µM	O=C(Nc1nc(NC(=O)c2cccnc2)n(-c2ccc(Cl)cc2)n1)c1cccnc1 [Compound 81]
2 µM	O=C(Nc1nc(NC(=O)c2ccncc2)n(-c2ccc(Cl)cc2)n1)c1ccncc1 [Compound 82]
> 100 µM	O=S(=O)(Nc1nc(NS(=O)(=O)c2ccccc2)n(-c2ccccc2)n1)c1ccccc1 [Compound 83]
4 µM	Cc1ccccc1C(=O)Nc1nc(NCc2ccccc2)nn1-c1ccccc1 [Compound 84]
3 µM	Cc1ccccc1C(=O)Nc1nc(NC(=O)c2ccncc2)nn1-c1ccc(C(F)(F)F)cc1 [Compound 85]
6 µM	Cc1ccccc1C(=O)Nc1nc(NC(=O)c2cccnc2)nn1-c1ccc(OC(F)(F)F)cc1 [Compound 86]
7 µM	Cc1ccccc1C(=O)Nc1nc(NC(=O)c2cccnc2)nn1-c1cccc(F)c1 [Compound 87]
5 µM	CCc1ccccc1C(=O)Nc1nc(NC(=O)c2ccccc2CC)n(-c2ccccc2)n1 [Compound 88]
2 µM	Cc1ccccc1C(=O)Nc1nc(NC(=O)c2ccncc2)nn1-c1cccc(F)c1 [Compound 89]
> 100 µM	O=C(Nc1ccccc1)c1nc(C(=O)Nc2ccccc2)n(-c2ccccc2)n1 [Compound 90]
2 µM	Cc1ccccc1C(=O)Nc1nc(NCCc2ccccc2)nn1-c1ccccc1 [Compound 91]
2 µM	Cc1ccccc1C(=O)Nc1nc(NC(=O)c2ccncc2)nn1-c1ccc(Cl)cc1 [Compound 92]
> 100 µM	Cc1cncc(F)c1C(=O)Nc1nc(NC(=O)c2c(C)cncc2F)n(-c2ccccc2)n1 [Compound 93]
4 µM	Cc1ccccc1C(=O)Nc1nc(NC(=O)c2cccnc2)nn1-c1ccc(C(F)(F)F)cc1 [Compound 94]
4 µM	Cc1ccccc1C(=O)Nc1nc(NC(=O)c2cccnc2)nn1-c1ccc(Cl)cc1 [Compound 95]
11 µM and 8 µM	O=C(Nc1nc(NC(=O)c2ccnc(O)c2)n(-c2ccccc2)n1)c1ccnc(O)c1 [Compound 96]
14 µM	Cc1ccccc1C(=O)Nc1nc(NCCc2ccccn2)nn1-c1ccccc1 [Compound 97]
5 µM	Cc1c(C(=O)Nc2nc(NC(=O)c3ccnc(F)c3C)n(-c3ccccc3)n2)ccnc1F [Compound 98]
13 µM	Cc1cnccc1C(=O)Nc1nc(NC(=O)c2ccncc2C)n(-c2ccccc2)n1 [Compound 99]
9 µM	Cc1cccc(C)c1C(=O)Nc1nc(NC(=O)c2c(C)cccc2C)n(-c2ccccc2)n1 [Compound 100]
18 µM	Cc1ccccc1C(=O)Nc1nc(NCc2ccccn2)nn1-c1ccccc1 [Compound 101]

Source: patent US10889553B2, “Asymmetric triazole benzamide derivatives and the compositions and methods of treatment regarding the same” (NysnoBio Ireland DAC, priority 2017, dated 2021)
